Test results published in ChEMBL document CHEMBL1149213, “Porphyrin-DNA cross-linking agent hybrids: chemical synthesis and biological studies” (Bioorg Med Chem Lett, 2004).

Each molecule was assayed on THP-1 (assay: Cytotoxicity was determined against THP-1 cell line as reduction in cell number). Conditions: Homo sapiens.
Type: functional, cell-based

| SMILES | IC50 |
| --- | --- |
| CCc1c2nc(c(-c3ccc(OC)c(C[N+](C)(C)C)c3)c3ccc([nH]3)c(CC)c3ccc([nH]3)c(-c3ccc(OC)c(C[N+](C)(C)C)c3)c3nc1C=C3)C=C2 | 1400 nM |
| C[N+](C)(C)Cc1cc(-c2c3nc(cc4ccc([nH]4)c(-c4ccc(O)c(C[N+](C)(C)C)c4)c4nc(cc5ccc2[nH]5)C=C4)C=C3)ccc1O | 5.6 nM |
| C[N+](C)(C)Cc1cc(-c2c3nc(c(-c4ccccc4)c4ccc([nH]4)c(-c4ccc(O)c(C[N+](C)(C)C)c4)c4ccc([nH]4)c(-c4ccccc4)c4nc2C=C4)C=C3)ccc1O | 61.8 nM |
| CCc1c2nc(c(-c3ccc(O)c(C[N+](C)(C)C)c3)c3ccc([nH]3)c(CC)c3ccc([nH]3)c(-c3ccc(O)c(C[N+](C)(C)C)c3)c3nc1C=C3)C=C2 | 88.4 nM |
